19 compounds from patent US20240043435A1, “TYK-2 INHIBITOR” (BEIGENE, LTD., priority 2020, published 2024) can be followed below.

The target of test [1] is T1, TYK2-JH2 (aa 575-869, in-house) protein (Homo sapiens, UniProt P29597).
T1 construct: TYK2-JH2 (aa 575-869, in-house) protein; made in house
As to the kind of experiment: TYK2-JH2 biochemical assay (HTRF probe displacement). Format: binding. Particulars: Biochemical assay; read-out: TYK2-JH2 IC50. In outline:
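HTRF probe-displacement format: compound dilutions (10 points, 5-fold, from 500 uM in DMSO at 500×) were combined with 0.2 nM TYK2-JH2 protein for 0.5 h at room temperature in HEPES pH 7.5 buffer with MgCl2, BSA, DTT and Brij-35. Percent inhibition came from the 615/665 nm fluorescence ratio, fitted to a four-parameter logistic for IC50.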

The test system of test [2] is JAK2, TYK2/p-STAT4 (Tyr693) activated by IL-12 in NK-92 cell line. As to the kind of experiment: IL-12-JAK2, TYK2/p-STAT4 (Tyr693) inhibition IC50 cellular assay. Conditions: for IC50: NK92, Cellular assay, read-out: pSTAT4/IL-12 IC50; for Selectivity fold (TYK2/JAK2): Cellular assay, pSTAT5/GM-CSF IC50 vs pSTAT4/IL-12 IC50. It is filed as cell-based. Summed up:
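p-STAT4 (Tyr693) in lysates was measured by AlphaLISA SureFire Ultra after a 30 min IL-12 challenge (40 ng/ml final) at 37° C. Overnight-starved, IL-2-free NK-92 cells had been pretreated 1 h with compound at 10000 to 0.61 nM (4-fold, 8 points). IC50 values came from four-parameter logistic fitting.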

Test [3] deals with pSTAT5/GM-CSF. As to the kind of experiment: pSTAT5/GM-CSF cellular assay (JAK2 selectivity). It is filed as cell-based. Conditions: for Selectivity fold (TYK2/JAK2): pSTAT5/GM-CSF IC50 over pSTAT4/IL-12 IC50.

T1 sequence (P29597 575-869): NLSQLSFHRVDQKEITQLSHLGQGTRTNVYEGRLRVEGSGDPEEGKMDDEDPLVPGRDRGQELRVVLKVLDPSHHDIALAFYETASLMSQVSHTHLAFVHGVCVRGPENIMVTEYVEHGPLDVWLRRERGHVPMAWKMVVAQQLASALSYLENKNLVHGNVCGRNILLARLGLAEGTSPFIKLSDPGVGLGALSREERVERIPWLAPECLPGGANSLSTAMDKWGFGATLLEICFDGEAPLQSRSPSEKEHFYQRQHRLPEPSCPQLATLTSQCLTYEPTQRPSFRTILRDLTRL

Take `CC(=O)Nc1cc(Nc2cccc(S(C)(=O)=O)c2)c(-c2ccn(C3CCOC3)n2)cn1` (stereo not shown) [Example M30, N-(4-((3-(methylsulfonyl)phenyl)amino)-5-(1-(tetrahydrofuran-3-yl)-1H-pyrazol-3-yl)pyridin-2-yl)acetamide]: the IC50 is 0.049 nM in test [1], 11.2 nM in test [2] and over 10000 nM in test [3]. For the same compound, in test [3], the “Selectivity fold (TYK2/JAK2)” value is on record as over 892 fold.

Take `CC(=O)Nc1cc(Nc2cc(C)cc(S(C)(=O)=O)n2)c(-c2cc3n(n2)CCOC3)cn1` [Example Q20, N-(5-(6,7-dihydro-4H-pyrazolo[5,1-c][1,4]oxazin-2-yl)-4-((4-methyl-6-(methylsulfonyl)pyridin-2-yl)amino)pyridin-2-yl)acetamide]: the IC50 in test [1] came out at 0.022 nM; in test [2] it was 0.16 nM; in test [3], 1770 nM. Moreover, the “Selectivity fold (TYK2/JAK2)” value in test [3] was 11043 fold.

`COCCOc1cc(Nc2cc(NC(C)=O)ncc2-c2cc3c(cn2)OCCO3)nc(S(C)(=O)=O)c1` [Example Q19, N-(5-(2,3-dihydro-[1,4]dioxino[2,3-c]pyridin-7-yl)-4-((4-(2-methoxyethoxy)-6-(methylsulfonyl)pyridin-2-yl)amino)pyridin-2-yl)acetamide]: the IC50 in test [1] was 0.025 nM; in test [2] it was 3.02 nM; in test [3], over 10000 nM. In test [3], the “Selectivity fold (TYK2/JAK2)” value is over 3311 fold.

Take `COCCOc1ccc(-c2cnc(NC(C)=O)cc2Nc2cc(OC[C@@H](C)OC)cc(S(C)(=O)=O)n2)nc1` [Example D7, (R)-N-(5-(2-methoxyethoxy)-4′-((4-(2-methoxypropoxy)-6-(methylsulfonyl)pyridin-2-yl)amino)-[2,3′-bipyridin]-6′-yl)acetamide]: the IC50 in test [1] was 0.031 nM; in test [2], 0.805 nM; in test [3] it was over 10000 nM. Moreover, in test [2], the “Selectivity fold (TYK2/JAK2)” value is recorded as over 12422 fold.

For `CC(=O)Nc1cc(Nc2cc(C(F)F)cc(S(C)(=O)=O)n2)c(-c2ccn(C)n2)cn1` [Example J42, N-(4-((4-(difluoromethyl)-6-(methylsulfonyl)pyridin-2-yl)amino)-5-(1-methyl-1H-pyrazol-3-yl)pyridin-2-yl)acetamide], the values for the IC50 in test [1], in test [2] and in test [3] were 0.05 nM, 0.796 nM and over 10000 nM, respectively. Also, the “Selectivity fold (TYK2/JAK2)” value in test [3] is listed as over 12562 fold.

Take `CC(=O)Nc1cc(Nc2cc(OCC(C)O)cc(S(C)(=O)=O)n2)c(-c2ccc(C(C)(C)O)cn2)cn1` (stereo not shown) [Example H26, N-(5-(2-hydroxypropan-2-yl)-4′-((4-(2-hydroxypropoxy)-6-(methylsulfonyl)pyridin-2-yl)amino)-[2,3′-bipyridin]-6′-yl)acetamide]: the IC50 was 0.039 nM in test [1], 11.7 nM in test [2] and over 10000 nM in test [3]. For the same compound, the “Selectivity fold (TYK2/JAK2)” value in test [2] was over 854 fold.

`CC(=O)Nc1cc(Nc2cccc(S(C)(=O)=O)n2)c(-c2c[nH]cn2)cn1` [Example A3, N-(5-(1H-imidazol-4-yl)-4-((6-(methylsulfonyl)pyridin-2-yl)amino)pyridin-2-yl)acetamide]: the IC50 was 0.035 nM in test [1], 2.53 nM in test [2] and over 10000 nM in test [3]. In addition, the “Selectivity fold (TYK2/JAK2)” value in test [2] was over 3952 fold.

With `CCn1ccc(-c2cnc(NC(C)=O)cc2Nc2cc(OC3CCCC3)cc(S(C)(=O)=O)n2)n1` [Example M17, N-(4-((4-(cyclopentyloxy)-6-(methylsulfonyl)pyridin-2-yl)amino)-5-(1-ethyl-1H-pyrazol-3-yl)pyridin-2-yl)acetamide], the IC50 is 0.041 nM in test [1], 1.09 nM in test [2] and over 10000 nM in test [3]. The “Selectivity fold (TYK2/JAK2)” value in test [3] is over 9174 fold.

For `CC(=O)Nc1cc(Nc2nc(S(C)(=O)=O)cn(C)c2=O)c(-c2ccc3c(n2)OCC(C)(C)O3)cn1` [Example Q64, N-(5-(2,2-dimethyl-2,3-dihydro-[1,4]dioxino[2,3-b]pyridin-6-yl)-4-((4-methyl-6-(methylsulfonyl)-3-oxo-3,4-dihydropyrazin-2-yl)amino)pyridin-2-yl)acetamide], the IC50 is 0.034 nM in test [1], 4.61 nM in test [2] and over 10000 nM in test [3]. Further, the “Selectivity fold (TYK2/JAK2)” value in test [3] is reported as over 2169 fold.

Turning to `CC(=O)Nc1cc(Nc2cc(C3CCCOC3)cc(S(C)(=O)=O)n2)c(-c2ccc3c(n2)OCC(C)(C)O3)cn1` (stereo not shown) [Example Q75, N-(5-(2,2-dimethyl-2,3-dihydro-[1,4]dioxino[2,3-b]pyridin-6-yl)-4-((6-(methylsulfonyl)-4-(tetrahydro-2H-pyran-3-yl)pyridin-2-yl)amino)pyridin-2-yl)acetamide], the values for the IC50 in test [1], in test [2] and in test [3] were 0.024 nM, 0.637 nM and 473 nM, respectively. Further, the “Selectivity fold (TYK2/JAK2)” value in test [3] came out at 742 fold.

As to `CC(=O)Nc1cc(Nc2cccc(S(C)(=O)=O)n2)c(-c2ccn(C3CC3)n2)cn1` [Example M1, N-(5-(1-cyclopropyl-1H-pyrazol-3-yl)-4-((6-(methylsulfonyl)pyridin-2-yl)amino)pyridin-2-yl)acetamide], the IC50 in test [1] is 0.055 nM; in test [2], 0.174 nM; in test [3], 2010 nM. Besides, in test [3], the “Selectivity fold (TYK2/JAK2)” value is on record as 11551 fold.

In the case of `CO[C@H]1CCCN(c2cc(Nc3cc(NC(C)=O)ncc3-c3ccc4c(n3)OCC(C)(C)O4)nc(S(C)(=O)=O)c2)C1` [Example Q65, (S)-N-(5-(2,2-dimethyl-2,3-dihydro-[1,4]dioxino[2,3-b]pyridin-6-yl)-4-((4-(3-methoxypiperidin-1-yl)-6-(methylsulfonyl)pyridin-2-yl)amino)pyridin-2-yl)acetamide], the IC50 in test [1] stood at 0.029 nM; in test [2], 0.685 nM; in test [3], 1640 nM. Further, in test [3], the “Selectivity fold (TYK2/JAK2)” value is 2397 fold.

On to `CC(=O)Nc1cc(Nc2cc(C)cc(S(C)(=O)=O)n2)c(-c2ccc(C(F)(F)F)cn2)cn1` [Example F1, N-(4′-((4-methyl-6-(methylsulfonyl)pyridin-2-yl)amino)-5-(trifluoromethyl)-[2,3′-bipyridin]-6′-yl)acetamide], for which the IC50 in test [1] was 0.046 nM; in test [2] it was 1.23 nM; in test [3] it was over 10000 nM. Moreover, the “Selectivity fold (TYK2/JAK2)” value in test [2] was over 8130 fold.

Regarding `CC(=O)Nc1cc(Nc2cccc(S(C)(=O)=O)n2)c(-c2ccn(C)n2)cn1` [Example J11, N-(5-(1-methyl-1H-pyrazol-3-yl)-4-((6-(methylsulfonyl)pyridin-2-yl)amino)pyridin-2-yl)actamide], the IC50 in test [1] was found to be 0.017 nM; in test [2] it was 0.275 nM; in test [3], 6420 nM. For the same compound, in test [3], the “Selectivity fold (TYK2/JAK2)” value stood at 23327 fold.

As for `CC(=O)Nc1cc(Nc2cc(-c3cnccc3C#N)cc(S(C)(=O)=O)n2)c(-c2ccc3c(n2)OCC(C)(C)O3)cn1` [Example Q115, N-(4-((4-cyano-6′-(methyslulfonyl)-[3,4′-bipyridin]-2′-yl)amino)-5-(2,2-dimethyl-2,3-dihydro-[1,4]dioxino[2,3-b]pyridin-6-yl)pyridin-2-yl)acetamide], the IC50 in test [1] was 0.034 nM; in test [2], 0.302 nM; in test [3], over 10000 nM. For the same compound, the “Selectivity fold (TYK2/JAK2)” value in test [3] was over 33112 fold.

With `CC(=O)Nc1cc(Nc2cc(OC(C)C)cc(S(C)(=O)=O)n2)c(-c2ccc(N3CC4CC3CO4)cn2)cn1` (stereo not shown) [Example B16, N-(5-(2-oxa-5-azabicyclo[2.2.1]heptan-5-yl)-4′-((4-isopropoxy-6-(methylsulfonyl)pyridin-2-yl)amino)-[2,3′-bipyridin]-6′-yl)acetamide], the figures for the IC50 in test [1], in test [2] and in test [3] were 0.03 nM, 0.513 nM and 4290 nM, respectively. Moreover, in test [2], the “Selectivity fold (TYK2/JAK2)” value turned out to be 8366 fold.

Take `COCc1ccnc(-c2cnc(NC(C)=O)cc2Nc2cccc(S(C)(=O)=O)n2)c1` [Example B8, N-(4-(methoxymethyl)-4′-((6-(methylsulfonyl)pyridin-2-yl)amino)-[2,3′-bipyridin]-6′-yl)acetamide]: the IC50 in test [1] was 0.047 nM; in test [2], 1.68 nM; in test [3], over 10000 nM. The “Selectivity fold (TYK2/JAK2)” value in test [2] is given as over 5952 fold.

For `CC(=O)Nc1cc(Nc2cc(OC(C)C)cc(S(C)(=O)=O)n2)c(-c2ccc(N3C[C@@H](C)O[C@@H](C)C3)cn2)cn1` [Example C4, N-(5-((cis)-2,6-dimethylmorpholino)-4′-((4-isopropoxy-6-(methylsulfonyl)pyridin-2-yl)amino)-[2,3′-bipyridin]-6′-yl)acetamide], the IC50 in test [1] is 0.034 nM; in test [2] it was 4.35 nM; in test [3], over 10000 nM. The “Selectivity fold (TYK2/JAK2)” value in test [2] was over 2298 fold.

With `CC(=O)Nc1cc(Nc2cc(OCC3COC3)cc(S(C)(=O)=O)n2)c(-c2ccc(C(C)(C)O)cn2)cn1` [Example H12, N-(5-(2-hydroxypropan-2-yl)-4′-((6-(methylsulfonyl)-4-(oxetan-3-ylmethoxy)pyridin-2-yl)amino)-[2,3′-bipyridin]-6′-yl)acetamide], the IC50 was 0.022 nM in test [1], 5.1 nM in test [2] and over 10000 nM in test [3]. The “Selectivity fold (TYK2/JAK2)” value in test [2] is reported as over 1960 fold.
